Measurements from ChEMBL document CHEMBL1131362, “Synthesis and anticholinesterase activity of huperzine A analogues containing phenol and catechol replacements for the pyridone ring” (Bioorg Med Chem Lett, 1998).
Active and inactive are the calls of the source. The rule behind the calls is not given here.

Experiments:
[1] = target: T1, Acetylcholinesterase (Bos taurus) (UniProt P23795); test: Compound was tested for acetylcholinesterase inhibition at concentration uM; No Inhibition
T1 sequence (whole entry): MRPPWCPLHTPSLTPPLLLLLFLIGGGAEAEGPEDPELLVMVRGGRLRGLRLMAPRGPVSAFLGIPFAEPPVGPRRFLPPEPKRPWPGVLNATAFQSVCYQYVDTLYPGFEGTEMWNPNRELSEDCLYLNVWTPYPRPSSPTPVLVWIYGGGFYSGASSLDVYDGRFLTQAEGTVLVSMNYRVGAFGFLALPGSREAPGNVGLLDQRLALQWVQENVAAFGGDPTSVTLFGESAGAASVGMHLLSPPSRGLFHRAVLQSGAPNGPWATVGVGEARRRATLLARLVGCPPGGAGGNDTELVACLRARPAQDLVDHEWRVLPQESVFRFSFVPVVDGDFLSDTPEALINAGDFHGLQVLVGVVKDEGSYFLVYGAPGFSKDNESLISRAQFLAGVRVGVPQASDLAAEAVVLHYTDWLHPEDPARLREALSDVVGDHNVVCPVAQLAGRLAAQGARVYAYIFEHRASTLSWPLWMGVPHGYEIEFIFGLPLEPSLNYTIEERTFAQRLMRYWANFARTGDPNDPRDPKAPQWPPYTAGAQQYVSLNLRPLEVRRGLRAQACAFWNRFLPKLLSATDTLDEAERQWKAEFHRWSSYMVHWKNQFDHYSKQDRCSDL

[2] = target: T1, Acetylcholinesterase (Bos taurus); test: Compound was tested for acetylcholinesterase inhibitory activity at concentration uM; Inactive

| Structure (SMILES) | inhibition [1] | inhibition [2] |
| --- | --- | --- |
| C/C=C1\C2C=C(C)C[C@]1(N)c1ccc(O)c(O)c1C2 | inactive | – |
| C/C=C1\C2C=C(C)C[C@]1(N)c1ccc(O)cc1C2 | – | inactive |
